Results from publication PMC7698842, “Lanostane Triterpenoid Metabolites from a Penares sp. Marine Sponge Protect Neuro-2a Cells against Paraquat Neurotoxicity” (Molecules, 2020).

Experiments:
[1] = Cytotoxicity toward Neuro-2a cells (MTT assay); format: cell-based, mouse; conditions: mouse, Neuro-2a neuroblastoma cells, 24 h; for activity at 24 h, 10 µM: Neuro-2a cell viability, read-out: Cytotoxicity (MTT Assay) % of Control at 10 μM; for IC50 at 24 h: Neuro-2a cells
Procedure: (§1) The cells of mouse neuroblastoma cell line Neuro-2a (ATCC® CCL-131™; American Type Culture Collection, Manassas, VA, USA) were cultured in Dulbecco’s modified Eagle’s medium (DMEM) containing 10% fetal bovine serum (Biolot, St. Petersburg, Russia) and 1% penicillin/streptomycin (Biolot, St. Petersburg, Russia) at 37 °C in a humidified atmosphere with 5% (v/v) CO2. Initially, cells were incubated in cultural flasks until sub-confluent (~80%). For testing, Neuro-2a cells were seeded in 96- or 6-well plates and experiments were started after 24 h.
(§2) The cells (1 × 10^4 cells/well of a 96-well plate) were incubated with different concentrations of studied compounds during 24 h. After that, cell viability was determined by the MTT (3-(4,5-dimethylthiazol-2-yl)-2,5-diphenyltetrazolium bromide) method according to the manufacturer’s instructions (Sigma-Aldrich, St. Louis, MO, USA). Absorbance of the converted formazan was measured using a Multiskan FC microplate photometer (Thermo Scientific, Waltham, MA, USA) at λ = 570 nm. The results were presented as percent of control data, and concentration of cell viability inhibition on 50% (IC50) was calculated.

[2] = DPPH radical scavenging assay (cell-free); conditions: 30 min, MeOH
Procedure: The 2,2-diphenyl-1-picryl-hydrazyl-hydrate (DPPH) radical scavenging activity was tested as described previously. The compounds were dissolved in MeOH, and the solutions (120 µL) were dispensed into wells of a 96-well microplate. The DPPH (Sigma-Aldrich, Steinheim, Germany) was dissolved in MeOH at a concentration of 7.5 × 10^−3 M and the solution (30 µL) was added to each well. The concentrations of tested compounds in the mixtures were 10 and 100 µM. Ascorbic acid was used as a positive control. The mixtures were shaken and left for 30 min. The absorbance of the resulting solutions was measured at λ = 520 nm with a MultiscanFC plate reader (Thermo Scientific, Waltham, MA, USA). The concentration scavenging 50% of the DPPH radical (EC50) was calculated for each compound.

[3] = test system: PQ-treated Neuro-2a cells; test: Propidium iodide straining of PQ-treated Neuro-2a cells (membrane permeability); format: cell-based, mouse; conditions: 24 h; for decrease of fluorescence of PI-straining cells: compound 10 μM pre-incubation, PQ-treated cells
Procedure: The cells (1 × 10^4 cells/well) were seeded in black 96-well plates before testing. After incubation of the cells with compounds and PQ during 24 h, PI solution (10 μg/mL) was added to each well and the plate was incubated in the dark at 37 °C for 10 min. Cells were washed with phosphate buffer saline (PBS) (BioloT, St.Peterburg, Russia) and fluorescence was measured with a Fluoroskan Ascent plate reader (Thermo Labsystems, Helsinki, Finland) at […]. All manipulations with fluorescent probes were carried out in a darkened room. The results were presented as percent of positive control data.

[4] = test system: ROS level in PQ-treated Neuro-2a cells; test: ROS level analysis in PQ-treated Neuro-2a cells (H2DCFDA); format: cell-based, mouse; conditions: for concentrations at which ROS content in PQ-treated cells was reduced: tested at 1 and 10 μM
Procedure: The cells (1 × 10^4 cells/well of a 96-well plate) were incubated with compound solutions (1 and 10 µM) during 1 h. Then, PQ was added to cell suspension to a resulting concentration of 500 µM for incubation during 1 h. Cells incubated without PQ and compounds and with PQ alone were used as positive and negative controls, respectively. The 20 µL of 2,7-dichlorodihydrofluorescein diacetate solution (H2DCFDA, Molecular Probes, Eugene, OR, USA) was added to each well (10 µM, final concentration) and the plate was incubated for an additional 10 min at 37 °C. The intensity of dichlorofluorescin fluorescence was measured with a PHERAstar FS plate reader (BMG Labtech, Ortenberg, Germany) at λex = 485 nm and λem = 518 nm. The data were processed by MARS Data Analysis v. 3.01R2 (BMG Labtech, Ortenberg, Germany). The results were presented as percent of positive control data.

[5] = test system: mitochondrial membrane potential in PQ-treated Neuro-2a cells; test: Mitochondrial membrane potential detection (TMRM) in PQ-treated Neuro-2a cells; format: cell-based, mouse
Procedure: The cells (1 × 10^4 cells/well of a 96-well plate) were incubated with compound solutions (1 and 10 µM) during 1 h. Then, PQ was added to cell suspension to a resulting concentration of 500 µM for incubation during 1 h. Cells incubated without PQ and compounds and with PQ alone were used as positive and negative controls, respectively. The tetramethylrhodamine methyl (TMRM) (Sigma-Aldrich, St. Louis, MO, USA) solution at 500 nM was added in each well and cells were incubated for 30 min at 37 °C. The intensity of fluorescence was measured with a PHERAstar FS plate reader (BMG Labtech, Ortenberg, Germany) at λex = 540 nm and λem = 590 nm. The data were processed by MARS Data Analysis v. 3.01R2 (BMG Labtech, Ortenberg, Germany). The results were presented as percent of positive control data.

[6] = test system: Hsp70 level in Neuro-2a cells; test: Hsp70 level analysis by Western blot in Neuro-2a cells; format: cell-based, mouse; conditions: for increase of Hsp70 level in PQ-treated cells: compound 10 µM 1 h, then PQ 500 µM 24 h
Procedure: The Hsp70 expression was detected by Western blot analysis. Cell suspensions (1.6 × 10^5 cells/well of a 6-well plate) were seeded and treated with studied compounds at a concentration of 10 µM for 1 h. After that, PQ (500 µM) was added and cells were incubated during 24 h. Cells incubated without PQ and compounds and with PQ alone were used as positive and negative controls, respectively. Cells were washed by cold PBS (BioloT, Russia) twice and lysed by radioimmunoprecipitation assay (RIPA) buffer (BioloT, St. Peterburg, Russia). The amount of proteins was measured by the Bradford method and equal samples (25 µg) were prepared using sample buffer. Proteins were separated with sodium dodecyl sulphate (SDS) electrophoresis in 10% polyacrylamide gel. The electrophoretically separated proteins were transferred onto the polyvinylidene difluoride (PVDF) membrane Whatman (Sigma-Aldrich, St. Louis, MO, USA) using a semi-dry transfer apparatus (Helicon, Moscow, Russia). […] The peroxidase reaction was visualized by an enhanced chemiluminescence (ECL) kit according to the instructions of the manufacturer (Sigma-Aldrich, St. Louis, MO, USA) using the VersaDoc Imaging System (Bio-Rad, Hercules, CA, USA).

[7] = test system: PQ-treated Neuro-2a cells; test: Neurite outgrowth estimation in PQ-treated Neuro-2a cells; format: cell-based, mouse
Procedure: Neurite outgrowth was studied as described by Li et al.. Neuro-2a cells were seeded in 6-well plates (1.6 × 10^5 cells/well) in DMEM medium containing 10% fetal bovine serum (Biolot, St. Peterburg, Russia) and 1% penicillin/streptomycin (Invitrogen, Carlsbad, CA, USA). The next day, this growth media was changed with serum-free DMEM media containing 1% penicillin/streptomycin, and cells were treated with studied compounds at a concentration of 10 µM for 1 h. After that, PQ (500 µM) was added and cells were incubated during 24 h. Cells incubated without PQ and compounds and with PQ alone were used as positive and negative controls, respectively.
For each well, approximately 10 images were acquired randomly by scanning the wells from left to right and top to bottom using the AxioImager A1 microscope (CarlZeiss, Oberkochen, Germany). A total of ten random fields (near 350 cells in each) for each experimental group were scored for neurite outgrowth. The number of neurite-bearing cells and lengths of the individual neurites for each cell were measured using the AxioVision 4.7.1 software (CarlZeiss, Oberkochen, Germany). Length was defined as the straight-line distance from the tip of the neurite to the junction between the cell body and neurite base. In the case of branched neurites, the length of the longest branch was measured from the tip of the neurite to the cell body. In each experimental group, the average length of neurites was calculated, as well as the average number of neurites per one cell.

[8] = test system: PQ-treated Neuro-2a cells; test: PQ-treated Neuro-2a cell viability (MTT assay); format: cell-based, mouse; conditions: 24 h; for effect on PQ-treated cell viability (MTT assay): compound 1 and 10 µM, PQ 500 µM
Procedure: as §2
(§3) The cells (1 × 10^4 cells/well of a 96-well plate) were treated with studied compounds at concentrations of 1 and 10 µM for 1 h and then 500 µM of PQ (Sigma-Aldrich, St. Louis, MO, USA) was added to the neuroblastoma cells. Cells incubated without PQ and compounds and with PQ alone were used as positive and negative controls, respectively. The viability of cells was measured after 24 h using MTT and FDA methods. The results were presented as percent of positive control data.

[9] = test system: Neuro-2a cells; test: Cytotoxicity toward Neuro-2a cells (MTT assay); format: cell-based, mouse; conditions: Neuro-2a cells, 100 μM, MTT assay
Procedure: as §1, §2

[10] = test system: PQ-treated Neuro-2a cells; test: PQ-treated Neuro-2a cell viability (FDA assay); format: cell-based, mouse; conditions: 24 h
Procedure: A stock solution of the fluorescein diacetate (FDA) (Sigma-Aldrich, St. Louis, MO, USA) in DMSO (1 mg/mL) was prepared. The cells (1 × 10^4 cells/well) were seeded in black 96-well plates before testing. After incubation of the cells with compounds and PQ during 24 h, FDA solution (50 μg/mL) was added to each well and the plate was incubated in the dark at 37 °C for 15 min. Cells were washed with phosphate buffer saline (PBS) (BioloT, S.-Peterburg, Russia) and fluorescence was measured with a Fluoroskan Ascent plate reader (Thermo Labsystems, Helsinki, Finland) at λex = 485 nm and λem = 518 nm. All manipulations with fluorescent probes were carried out in a darkened room. Cell viability was expressed as the percent of control.
as §3

[11] = compound 10 µM 1 h, then PQ 500 µM 24 h
[12] = PQ-treated cells (PQ alone 500 µM)

Compound | activity at 24 h, 10 µM [1] [%] | IC50 at 24 h [1] [µM] | EC50 [2] [µM] | decrease of fluorescence of PI-straining cells [3] [%] | increase of Hsp70 level in PQ-treated cells [6] [%] | increase in the average number of neurites per cell [7, 11] [%] | effect on PQ-treated cell viability (MTT assay) [8] | concentrations at which ROS content in PQ-treated cells was reduced ([4]; PQ 500 µM 1 h) | other results
CC(=O)O[C@H]1CC[C@@]2(C)[C@@H](C[C@@H]3O[C@]34[C@]23CC[C@]2(C)[C@@H]([C@H](C)CCC=C(C)C)CC[C@@]42C(=O)O3)C1(C)C [Compound 1, 3β-acetoxy-7β,8β-epoxy-5α-lanost-24-en-30,9α-olide] | 92.1 ± 7.1 | 85.7 ± 2.4 | > 100 | 16 | 62 | 16 | – | – | effect on ROS level in PQ-treated cells ([4]; compound 1 and 10 µM, 1 h pre-treatment, PQ 500 µM 1 h): did not affect ROS level; increase of intensity of TMRM fluorescence (PQ-induced mitochondrial dysfunction diminished) ([5]; compound 10 μM, PQ 500 µM 1 h): 37%; effect on the number of neurite-bearing PQ-treated cells ([7]; compound 10 µM, PQ 500 µM): did not show a statistical effect
CC(C)=CCC[C@@H](C)[C@H]1CC[C@]23C(=O)O[C@]4(CC[C@]12C)[C@]31O[C@H]1C[C@H]1C(C)(C)[C@@H](O)CC[C@@]14C [Compound 2, 3β-hydroxy-7β,8β-epoxy-5α-lanost-24-en-30,9α-olide] | 96.9 ± 1.1 | > 100 | > 100 | 12 | 43 | 12 | did not show any effect | reduced ROS content only at a concentration of 10 μM | –
CC(C)=CCC[C@@H](C)[C@H]1CC[C@@]2(C(=O)O)C3=C(CC[C@]12C)[C@@]1(C)CCC(=O)[C@@H](C)[C@@H]1CC3 [Compound 3, 29-nor-penasterone] | 91.1 ± 4.1 | > 100 | > 100 | – | 26 | 17 | did not show any effect | reduced ROS content only at a concentration of 10 μM | death of cells [9]: 37.4%; effect on PQ-treated cell viability (FDA assay) ([10]; compound 1 and 10 µM, PQ 500 µM): did not show any effect; increase of neurites-bearing cell amount compared to PQ-treated control [7, 11]: 113%
N,N-dimethyl-4,4-bipyridinium dichloride [PQ, reference compound] | – | – | – | – | – | – | – | – | PQ-treated cell viability, % of control cells (MTT assay) ([8]; PQ alone 500 µM): 45.4%; PQ-treated cell viability, % of control cells (FDA assay) ([10]; PQ alone 500 µM): 62.2%; increase in the number of PI-straining cells ([3]; PQ alone, versus control): 35%; increase of ROS level compared to control cells ([4]; PQ alone 500 µM, within 1 h): 40%; decrease of TMRM fluorescence ([5]; PQ alone, 1 h exposition): 30%; change of Hsp70 level in comparison with control cells ([6]; PQ alone 500 µM, 24 h): half-decrease; average length of neurites, less than control value by ([7]; PQ alone 500 µM, 24 h): 29%; number of neurites per cell, less than control value by ([7]; PQ alone 500 µM, 24 h): 14%; cells with neurites ([7]; PQ alone 500 µM, 24 h, control 30%): 10%; proportion of neurites with a length of 0–4.99 µm in the total number [7, 12]: 11.1%; proportion of neurites with a length of 10.00–14.99 µm in the total number [7, 12]: 16.6%
